According to patent US20250361268A1, “NOVEL ANTI-INFLAMMATORY PEPTIDE AND USE THEREOF” (NOVACELL TECHNOLOGY INC., priority 2022, published 2025):
Peptide text beside a SMILES is read from it.

Columns and labels:
FPR1 = target: T1, FPR1 (Homo sapiens, UniProt P21462); assay: Change in calcium activity by peptide, FPR1 activation effect; assay type: cell-based; settings: calcium activity (Fura-2), graded per Table 3, read-out: EC50 for [Ca^2+] FPR1
T1 sequence (P21462 1-350): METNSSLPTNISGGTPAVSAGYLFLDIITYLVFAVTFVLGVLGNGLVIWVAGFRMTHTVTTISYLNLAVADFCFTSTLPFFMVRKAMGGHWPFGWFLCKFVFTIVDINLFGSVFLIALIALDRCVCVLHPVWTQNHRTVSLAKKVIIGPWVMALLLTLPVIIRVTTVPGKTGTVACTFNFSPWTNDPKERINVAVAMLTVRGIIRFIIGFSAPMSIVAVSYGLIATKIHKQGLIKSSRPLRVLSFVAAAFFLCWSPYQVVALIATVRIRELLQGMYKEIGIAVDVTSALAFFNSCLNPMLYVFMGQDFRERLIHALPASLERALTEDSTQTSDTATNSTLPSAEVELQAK
Method: The day before measuring calcium activity, the cells were prepared at 3×10^5 cells per well in a 96-well flat clear bottom black plate (Costar, #3603). The prepared cells were treated with a Fura-2 QBT calcium kit (component A; Molecular Devices, #8197) at the same volume per well. After incubation at 37° C. for 1 hour, the cells were incubated in a dark room at room temperature for 30 minutes. After the Fura-2-treated cells, the prepared peptide, and a dedicated tip were placed at each section of FlexStation 3 Multi-Mode Microplate Reader (Molecular Devices, #Flex3), changes in calcium activity caused by the peptides were measured using SoftMax Pro 7 Software (Molecular Devices, #FLEX3-INSTALL-OS). […]

FPR2 = target: T2, FPR2 (Homo sapiens, UniProt P25090); assay: Change in calcium activity by peptide (Fura-2) in RBL cells overexpressing FPR2; assay type: cell-based; settings: calcium activity (Fura-2), graded per Table 3, read-out: EC50 for [Ca^2+] FPR2
T2 construct: expressed in transfected cells; host or cells: RBL cells (RBL-FPR2)
T2 sequence (P25090 1-351): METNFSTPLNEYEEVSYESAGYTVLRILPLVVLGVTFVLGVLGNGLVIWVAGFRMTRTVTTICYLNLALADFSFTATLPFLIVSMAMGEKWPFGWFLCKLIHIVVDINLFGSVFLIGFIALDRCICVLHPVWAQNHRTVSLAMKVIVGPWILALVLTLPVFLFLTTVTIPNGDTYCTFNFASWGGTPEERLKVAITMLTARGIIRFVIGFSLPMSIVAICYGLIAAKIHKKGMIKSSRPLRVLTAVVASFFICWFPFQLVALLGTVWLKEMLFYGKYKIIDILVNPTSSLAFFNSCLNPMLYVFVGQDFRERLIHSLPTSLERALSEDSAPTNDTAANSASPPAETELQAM
Method: The present inventors observed changes in calcium ion permeability to confirm whether the immunomodulatory peptide candidates prepared according to one example of the present invention activate the immune function of a living organism. Specifically, the concentration of calcium ions in cells was measured to confirm whether the peptides activate FPR2.
A peptide dissolved in water or 50% DMSO at a concentration of 0.5 mM was prepared by diluting it to an appropriate concentration in HBSS (Sigma, #55037C)+20 mM HEPES buffer.
In this experiment, the cells were cultured in DMEM (Lonza, #BE12-604F) containing 10% fetal bovine serum (FBS) and 1% penicillin-streptomycin under conditions of 37° C. and 5% CO2.
The day before measuring calcium activity, the cells were prepared at 3×10^5 cells per well in a 96-well flat clear bottom black plate (Costar, #3603). The prepared cells were treated with a Fura-2 QBT calcium kit (component A; Molecular Devices, #8197) at the same volume per well. After incubation at 37° C. for 1 hour, the cells were incubated in a dark room at room temperature for 30 minutes. After the Fura-2-treated cells, the prepared peptide, and a dedicated tip were placed at each section of FlexStation 3 Multi-Mode Microplate Reader (Molecular Devices, #Flex3), changes in calcium activity caused by the peptides were measured using SoftMax Pro 7 Software (Molecular Devices, #FLEX3-INSTALL-OS).

EC50 (FPR1) [nM]	EC50 (FPR2) [nM]	SMILES
> 10000	11 to 100	CCCCCCCC(=O)N[C@@H](CCCNC(=N)N)C(=O)N[C@@H](Cc1c[nH]c2ccccc12)C(=O)N[C@@H](CCCNC(=N)N)C(=O)N[C@@H](Cc1ccc(O)cc1)C(=O)N[C@@H](CCCCN)C(=O)N[C@@H](Cc1ccc(O)cc1)C(=O)N[C@H](CCSC)C(N)=O [Peptide 34] (HELM PEPTIDE1{[CCCCCCCC(=O)[*:2]].R.W.R.Y.K.Y.[dM].[am]}$$$$V2.0)
101 to 1000	< 10	CSCC[C@@H](NC(=O)[C@@H]1CCCN1C(=O)[C@H](Cc1c[nH]c2ccccc12)NC(=O)[C@H](Cc1ccc(O)cc1)NC(=O)[C@H](CCCNC(=N)N)NC(=O)[C@@H](N)Cc1c[nH]c2ccccc12)C(N)=O [Peptide 118] (HELM PEPTIDE1{W.R.Y.W.P.[dM].[am]}$$$$V2.0)
> 10000	< 10	CSCC[C@H](N)C(=O)N[C@@H](CCCNC(=N)N)C(=O)N[C@@H](Cc1ccc(O)cc1)C(=O)N[C@@H](Cc1c[nH]c2ccccc12)C(=O)N[C@@H](Cc1ccc(O)cc1)C(=O)N[C@H](CCSC)C(N)=O [Peptide 85] (HELM PEPTIDE1{M.R.Y.W.Y.[dM].[am]}$$$$V2.0)
101 to 1000	< 10	CSCC[C@@H](NC(=O)[C@@H]1CCCN1C(=O)[C@H](Cc1ccc(O)cc1)NC(=O)[C@H](Cc1ccc(O)cc1)NC(=O)[C@H](CCCNC(=N)N)NC(=O)[C@H](Cc1c[nH]c2ccccc12)NC(C)=O)C(N)=O [Peptide 122] (HELM PEPTIDE1{[ac].W.R.Y.Y.P.[dM].[am]}$$$$V2.0)
> 10000	< 10	CSCC[C@H](NC(C)=O)C(=O)N[C@@H](CCCNC(=N)N)C(=O)N[C@@H](Cc1ccc(O)cc1)C(=O)N[C@@H](Cc1c[nH]c2ccccc12)C(=O)N[C@@H](Cc1ccc(O)cc1)C(=O)N[C@H](CCSC)C(N)=O [Peptide 86] (HELM PEPTIDE1{[ac].M.R.Y.W.Y.[dM].[am]}$$$$V2.0)
> 10000	< 10	CCCC(=O)N[C@@H](Cc1c[nH]cn1)C(=O)N[C@@H](CCSC)C(=O)N[C@@H](CCCCN)C(=O)N[C@@H](Cc1ccc(O)cc1)C(=O)N[C@@H](CCCCN)C(=O)N[C@H](C(=O)N[C@H](CCSC)C(N)=O)C(C)C [Peptide 23] (HELM PEPTIDE1{[CCCC(=O)[*:2]].H.M.K.Y.K.V.[dM].[am]}$$$$V2.0)
> 10000	< 10	CCCC(=O)N[C@@H](Cc1c[nH]cn1)C(=O)N[C@@H](Cc1c[nH]c2ccccc12)C(=O)N[C@@H](CCCCN)C(=O)N[C@@H](Cc1ccc(O)cc1)C(=O)N[C@@H](CCCCN)C(=O)N[C@@H](Cc1ccc(O)cc1)C(=O)N[C@H](CCSC)C(N)=O [Peptide 37] (HELM PEPTIDE1{[CCCC(=O)[*:2]].H.W.K.Y.K.Y.[dM].[am]}$$$$V2.0)
> 10000	< 10	CCCC(=O)N[C@@H](CCCNC(=N)N)C(=O)N[C@@H](CCSC)C(=O)N[C@@H](CCCNC(=N)N)C(=O)N[C@@H](Cc1ccc(O)cc1)C(=O)N[C@@H](CCCCN)C(=O)N1CCC[C@H]1C(=O)N[C@H](CCSC)C(N)=O [Peptide 52] (HELM PEPTIDE1{[CCCC(=O)[*:2]].R.M.R.Y.K.P.[dM].[am]}$$$$V2.0)
1000 to 10000	11 to 100	CCCCCCCC(=O)N[C@@H](CCCNC(=N)N)C(=O)N[C@@H](CCSC)C(=O)N[C@@H](CCCNC(=N)N)C(=O)N[C@@H](Cc1ccc(O)cc1)C(=O)N[C@@H](Cc1ccc(O)cc1)C(=O)N[C@H](C(=O)N[C@H](CCSC)C(N)=O)C(C)C [Peptide 99] (HELM PEPTIDE1{[CCCCCCCC(=O)[*:2]].R.M.R.Y.Y.V.[dM].[am]}$$$$V2.0)
> 10000	11 to 100	CC[C@H](C)[C@H](N)C(=O)N[C@@H](CCCCN)C(=O)N[C@@H](Cc1ccccc1)C(=O)N[C@@H](CCCCN)C(=O)N[C@H](C(=O)N[C@H](CCSC)C(N)=O)C(C)C [Peptide 132] (HELM PEPTIDE1{I.K.F.K.V.[dM].[am]}$$$$V2.0)
> 10000	< 10	CSCC[C@H](NC(=O)[C@@H]1CCCN1)C(=O)N[C@@H](CCCNC(=N)N)C(=O)N[C@@H](Cc1ccc(O)cc1)C(=O)N[C@@H](CCCCN)C(=O)N[C@@H](Cc1ccc(O)cc1)C(=O)N[C@H](CCSC)C(N)=O [Peptide 46] (HELM PEPTIDE1{P.M.R.Y.K.Y.[dM].[am]}$$$$V2.0)
> 10000	11 to 100	CCCCCCCC(=O)N[C@@H](CCSC)C(=O)N[C@@H](CCCNC(=N)N)C(=O)N[C@@H](Cc1ccc(O)cc1)C(=O)N[C@@H](CCCCN)C(=O)N[C@H](C(=O)N[C@H](CCSC)C(N)=O)C(C)C [Peptide 16] (HELM PEPTIDE1{[CCCCCCCC(=O)[*:2]].M.R.Y.K.V.[dM].[am]}$$$$V2.0)
> 10000	< 10	CC[C@H](C)[C@H](N)C(=O)N[C@@H](CCCCN)C(=O)N[C@@H](Cc1ccc(O)cc1)C(=O)N[C@@H](CCCCN)C(=O)N1CCC[C@H]1C(=O)N[C@H](CCSC)C(N)=O [Peptide 142] (HELM PEPTIDE1{I.K.Y.K.P.[dM].[am]}$$$$V2.0)
> 10000	11 to 100	CSCC[C@@H](NC(=O)[C@H](Cc1ccc(O)cc1)NC(=O)[C@H](CCCNC(=N)N)NC(=O)[C@H](Cc1ccc(O)cc1)NC(=O)[C@H](CCCNC(=N)N)NC(=O)[C@H](Cc1c[nH]c2ccccc12)NC(=O)[C@@H](N)CCCNC(=N)N)C(N)=O [Peptide 48] (HELM PEPTIDE1{R.W.R.Y.R.Y.[dM].[am]}$$$$V2.0)
1000 to 10000	< 10	CSCC[C@H](NC(C)=O)C(=O)N[C@@H](CCCNC(=N)N)C(=O)N[C@@H](Cc1ccc(O)cc1)C(=O)N[C@@H](CCCCN)C(=O)N[C@H](C(=O)N[C@H](CCSC)C(N)=O)C(C)C [Peptide 14] (HELM PEPTIDE1{[ac].M.R.Y.K.V.[dM].[am]}$$$$V2.0)
> 10000	< 10	CSCC[C@@H](NC(=O)[C@H](Cc1ccc(O)cc1)NC(=O)[C@H](Cc1ccccc1)NC(=O)[C@H](Cc1ccc(O)cc1)NC(=O)[C@H](CCCNC(=N)N)NC(=O)[C@H](Cc1c[nH]c2ccccc12)NC(=O)[C@@H](N)CCCNC(=N)N)C(N)=O [Peptide 156] (HELM PEPTIDE1{R.W.R.Y.F.Y.[dM].[am]}$$$$V2.0)
1000 to 10000	< 10	CSCC[C@@H](NC(=O)[C@@H](NC(=O)[C@H](Cc1ccc(O)cc1)NC(=O)[C@H](Cc1ccc(O)cc1)NC(=O)[C@H](CCCNC(=N)N)NC(=O)[C@H](Cc1c[nH]c2ccccc12)NC(=O)[C@@H](N)CCCNC(=N)N)C(C)C)C(N)=O [Peptide 94] (HELM PEPTIDE1{R.W.R.Y.Y.V.[dM].[am]}$$$$V2.0)
> 10000	< 10	CCCC(=O)N[C@@H](CCSC)C(=O)N[C@@H](CCCNC(=N)N)C(=O)N[C@@H](Cc1ccc(O)cc1)C(=O)N[C@@H](CCCCN)C(=O)N1CCC[C@H]1C(=O)N[C@H](CCSC)C(N)=O [Peptide 56] (HELM PEPTIDE1{[CCCC(=O)[*:2]].M.R.Y.K.P.[dM].[am]}$$$$V2.0)
> 10000	< 10	CCCCCCCC(=O)N1CCC[C@H]1C(=O)N[C@@H](CCSC)C(=O)N[C@@H](CCCNC(=N)N)C(=O)N[C@@H](Cc1ccc(O)cc1)C(=O)N[C@@H](CCCCN)C(=O)N1CCC[C@H]1C(=O)N[C@H](CCSC)C(N)=O [Peptide 65] (HELM PEPTIDE1{[CCCCCCCC(=O)[*:2]].P.M.R.Y.K.P.[dM].[am]}$$$$V2.0)
> 10000	11 to 100	CC[C@H](C)[C@H](N)C(=O)N[C@@H](CCCCN)C(=O)N[C@@H](Cc1ccccc1)C(=O)N[C@@H](Cc1c[nH]c2ccccc12)C(=O)N[C@@H](Cc1ccc(O)cc1)C(=O)N[C@H](CCSC)C(N)=O [Peptide 128] (HELM PEPTIDE1{I.K.F.W.Y.[dM].[am]}$$$$V2.0)
